What was measured:
[1] = biological target: T1, purified LasB protein from P. aeruginosa (Pseudomonas aeruginosa, UniProt P14756); assay: Fluorometric assay to determine Ki (Abz-Ala-Gly-Leu-Ala-p-Nitro-Benzyl-Amide substrate); assay type: biochemical
T1 construct: purchased Merck or Charles River Laboratories
In short: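 Purified P. aeruginosa LasB (10–140 ng/ml) with 250 µM Abz-Ala-Gly-Leu-Ala-p-nitrobenzylamide in 50 mM Tris-HCl pH 7.4, 2.5 mM CaCl2, 0.01% Triton X100, 37 °C; hydrolysis fluorescence (Ex 340/Em 415 nm) followed over 30 min, inhibitor 0.0016–200 µM. Ki = IC50/(1+[S]/Km), Km 214 µM.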

LasB = biological target: T2, LasB (Pseudomonas aeruginosa, UniProt P14756); assay: Elastin assay to determine % inhibition (Elastin Congo-Red, dialysed culture supernatant); assay type: biochemical, P. aeruginosa PAO1; conditions: read-out: Elastin hydrolysis % inhibition @ 50 / 25 µM inhibitor concentration
T2 construct: uses as source of enzyme dialysed supernatant from P. aeruginosa PAO1; endogenous in cells; host or cells: P. aeruginosa PAO1 culture supernatant, filtered and dialysed
In short: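 Enzyme source was dialysed PAO1 culture supernatant (50 mM Tris-HCl pH 7.4, 2.5 mM CaCl2), mixed with Elastin Congo-Red and 0.01% Triton X-100. Compound was routinely 50 to 1.56 µM, incubated overnight at 37 °C with shaking. Dye release at OD495 gave % inhibition relative to DMSO and no-enzyme controls.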

NCI-H292 = assay: Cellular model: Trappin-2 content (ELISA) in lung epithelial cells treated with PAO1 supernatant; assay type: cell-based, human; conditions: PAO1 supernatant pre-incubated with compound 1h at 37°C, 6h incubation
Text: (§1) These degradations are beneficial for P. aeruginosa pathogenesis by inhibiting antimicrobial peptide while impairing lung function of the host by promoting lung damage and inhibiting epithelial cell repair. In mice, intranasally instillated LasB induced significant inflammation, injury and death. […] Our compounds are therefore been tested in cellular models to define inhibitory effect of our series on LasB deleterious effect on human lung epithelial cell models (NCI-H292 and CFBE). Supernatants from PAO1 wild type and lasB mutant (PAO1ΔlasB) are pre-incubated with Example 1 at 10 times the final concentrations for 1h at 37°C. Then, supernatants are added to cell lines. After 6h incubation, cell culture supernatants are recovered, IL-6 and Trappin-2 contents are analysed by ELISA method. A Student t-Test is performed to assess the statistical significance between conditions (p < 0.05, *). NCI-H292 and CFBE cells express respectively Trappin-2 and IL-6. Whether treatment with culture supernatant from PAO1ΔlasB induces an overexpression of both immune factors, the treatment with PAO1 supernatant lead to strong reduction of IL-6 and Trappin-2 detected. LasB, hydrolyzing IL-6 and Trappin-2, hijacks the immune response against PA. […] By restoring immune response and secretion of IL-6 and Trappin-2, Example 1 and related LasB inhibitors may restore eradication of PA by the immune system.

CFBE = assay: Cellular model: IL-6 content (ELISA) in lung epithelial cells treated with PAO1 supernatant; assay type: cell-based, human; conditions: PAO1 supernatant pre-incubated with compound 1h at 37°C, 6h incubation
Text: as §1

T1 sequence (P14756 198-498): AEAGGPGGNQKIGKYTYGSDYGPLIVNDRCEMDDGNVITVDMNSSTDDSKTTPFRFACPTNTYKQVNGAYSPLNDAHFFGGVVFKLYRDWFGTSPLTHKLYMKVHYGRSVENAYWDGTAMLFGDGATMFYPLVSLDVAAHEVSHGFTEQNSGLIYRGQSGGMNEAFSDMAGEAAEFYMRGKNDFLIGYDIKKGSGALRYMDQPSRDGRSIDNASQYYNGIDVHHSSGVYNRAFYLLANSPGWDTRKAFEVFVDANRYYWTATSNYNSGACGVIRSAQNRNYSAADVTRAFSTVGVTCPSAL
T2 sequence (P14756 198-498): as above

SMILES	Ki [1] [nM]	inhibition at 25 µM (LasB) [%]	level of Trappin-2 (NCI-H292)	level of IL-6 (CFBE)
O=C(O)CC1(C(=O)NCc2nc(-c3ccccc3)cs2)Cc2ccccc2C1 [Example 1, 2-[2-[(4-phenylthiazol-2-yl)methylcarbamoyl]indan-2-yl]acetic acid]	50 to 200	> 75	restored in a dose response maneer level of both Trappin-2 and IL-6 similar to the control	restored in a dose response maneer level of both Trappin-2 and IL-6 similar to the control
C[N+]1(CCCOc2ccc(-c3csc(CNC(=O)C4(CC(=O)[O-])Cc5cc(F)c(F)cc5C4)n3)cc2S(C)(=O)=O)CCOCC1 [Example 62, 2-[5,6-difluoro-2-[[4-[4-[3-(4-methylmorpholin-4-ium-4-yl)propoxy]-3-methylsulfonyl-phenyl]thiazol-2-yl]methylcarbamoyl]indan-2-yl]acetate]	50 to 200	60 to 75		
Cn1cc[n+](C)c1CCOc1ccc(-c2csc(CNC(=O)C3(CC(=O)[O-])Cc4ccccc4C3)n2)cc1 [Example 87, 2-[2-[[4-[4-[2-(1,3-dimethylimidazol-1-ium-2-yl)ethoxy]phenyl]thiazol-2-yl]methylcarbamoyl]indan-2-yl]acetate]	50 to 200	10 to 60		
CN1CCN(CCCn2cc(-c3csc(CNC(=O)C4(CC(=O)O)Cc5ccccc5C4)n3)cn2)CC1=O [Example 116, 2-[2-[[4-[1-[3-(4-methyl-3-oxo-piperazin-1-yl)propyl]pyrazol-4-yl]thiazol-2-yl]methylcarbamoyl]indan-2-yl]acetic acid]	50 to 200	60 to 75		
CN1CCN(c2ccc(-c3csc(CNC(=O)C4(CC(=O)O)Cc5ccccc5C4)n3)cc2)CC1 [Example 26, 2-[2-[[4-[4-(4-methylpiperazin-1-yl)phenyl]thiazol-2-yl]methylcarbamoyl]indan-2-yl]acetic acid]	50 to 200	60 to 75		
CN(C)C1CCN(S(=O)(=O)c2cc(-c3csc(CNC(=O)C4(CC(=O)O)Cc5cc(F)c(F)cc5C4)n3)ccc2OCCN2CCOCC2)CC1 [Example 134, 2-[2-[[4-[3-[[4-(dimethylamino)-1-piperidyl]sulfonyl]-4-(2-morpholinoethoxy)phenyl]thiazol-2-yl]methylcarbamoyl]-5,6-difluoro-indan-2-yl]acetic acid]	50 to 200	60 to 75		
COc1cc(OCc2ccc[n+](C)c2)ccc1-c1csc(CNC(=O)C2(CC(=O)[O-])Cc3ccccc3C2)n1 [Example 77, 2-[2-[[4-[2-methoxy-4-[(1-methylpyridin-1-ium-3-yl)methoxy]phenyl]thiazol-2-yl]methylcarbamoyl]indan-2-yl]acetate]	50 to 200	10 to 60		
COc1cc(OCCC[N+]2(C)CCOCC2)ccc1-c1csc(CNC(=O)C2(CC(=O)[O-])Cc3ccccc3C2)n1 [Example 69, 2-[2-[[4-[2-methoxy-4-[3-(4-methylmorpholin-4-ium-4-yl)propoxy]phenyl]thiazol-2-yl]methylcarbamoyl]indan-2-yl]acetate]	50 to 200	10 to 60		
NCCOc1ccccc1-c1csc(CNC(=O)C2(CC(=O)O)Cc3ccccc3C2)n1 [Example 14, 2-[2-[[4-[2-(2-aminoethoxy)phenyl]thiazol-2-yl]methylcarbamoyl]indan-2-yl]acetic acid]	200 to 10000	10 to 60		
COc1ccc(-c2csc(CNC(=O)C3(CC(=O)O)Cc4ccccc4C3)n2)cc1S(=O)(=O)N1CCC(N(C)C)CC1 [Example 121, 2-[2-[[4-[3-[[4-(dimethylamino)-1-piperidyl]sulfonyl]-4-methoxy-phenyl]thiazol-2-yl]methylcarbamoyl]indan-2-yl]acetic acid]	50 to 200	60 to 75		
Cc1nn(C)cc1-c1csc(CNC(=O)C2(CC(=O)O)Cc3ccccc3C2)n1 [Example 93, 2-[2-[[4-(1,3-dimethylpyrazol-4-yl)thiazol-2-yl]methylcarbamoyl]indan-2-yl]acetic acid]	50 to 200	60 to 75		
CN1CCC(C(=O)Nc2ccc(-c3csc(CNC(=O)C4(CC(=O)O)Cc5ccccc5C4)n3)cc2)CC1 [Example 43, 2-[2-[[4-[4-[(1-methylpiperidine-4-carbonyl)amino]phenyl]thiazol-2-yl]methylcarbamoyl]indan-2-yl]acetic acid]	200 to 10000	60 to 75		

— EP3628672A1 (priority 2018, dated 2020)
